Literature values in patent US20120282187A1 (BOEHRINGER INGELHEIM INTERNATIONAL GMBH, priority 2008, published 2012).

Assays:
[1] = test system: patients with non-valvular atrial fibrillation; conditions: in vivo; cited from earlier work
[2] = test system: patients with atrial fibrillation; conditions: sub-cutaneous; cited from earlier work

| SMILES | hepatotoxicity [1] | efficacy compared to warfarin [2] | risk of bleeding compared to warfarin [2] |
| --- | --- | --- | --- |
| CCOC(=O)CN[C@@H](C(=O)N1CC[C@H]1C(=O)NCc1ccc(/C(N)=N\O)cc1)C1CCCCC1 [ximelagatran] | hepatotoxic |  |  |
| CO[C@H]1O[C@H](COS(=O)(=O)O)[C@@H](O[C@@H]2O[C@@H](C(=O)O)[C@@H](O[C@H]3O[C@H](COS(=O)(=O)O)[C@@H](O[C@@H]4O[C@H](C(=O)O)[C@@H](O[C@H]5O[C@H](COS(=O)(=O)O)[C@@H](OC)[C@H](OC)[C@H]5OC)[C@H](OC)[C@H]4OC)[C@H](OS(=O)(=O)O)[C@H]3OS(=O)(=O)O)[C@H](OC)[C@H]2OC)[C@H](OS(=O)(=O)O)[C@H]1OS(=O)(=O)O [idraparinux] |  | more effective than warfarin | substantially higher risk of bleeding |
